# Laboratory results reported in patent publication US9446039B2, “Aminoheteroaryl compounds as MTH1 inhibitors” (CEMM—FORSCHUNGSZENTRUM FÜR MOLEKULARE MEDIZIN GMBH, priority 2012, dated 2016).
# Key:
# Assay type in all cases: binding
# [1] = molecular target: T1, SW480 colon carcinoma cells lysate proteins (Homo sapiens, UniProt P06454); conditions: PreyGene PTMA
# T1 sequence (P06454 1-111): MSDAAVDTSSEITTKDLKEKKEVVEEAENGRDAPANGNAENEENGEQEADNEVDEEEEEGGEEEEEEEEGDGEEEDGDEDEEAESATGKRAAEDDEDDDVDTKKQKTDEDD
# [2] = molecular target: SW480 colon carcinoma cells lysate proteins (Homo sapiens, UniProt P15559); conditions: PreyGene NQO1
# [3] = molecular target: SW480 colon carcinoma cells lysate proteins (Homo sapiens, UniProt Q9HB71); conditions: PreyGene CACYBP
# [4] = molecular target: SW480 colon carcinoma cells lysate proteins (Homo sapiens, UniProt Q13561); conditions: PreyGene DCTN2
# [5] = molecular target: SW480 colon carcinoma cells lysate proteins (Homo sapiens, UniProt Q9NTK5); conditions: PreyGene OLA1; SW480 cells
# [6] = molecular target: SW480 colon carcinoma cells lysate proteins (Homo sapiens, UniProt P26447); conditions: PreyGene S100A4
# [7] = molecular target: T2, SW480 colon carcinoma cells lysate proteins (Homo sapiens, UniProt P61916); conditions: PreyGene NPC2
# T2 sequence (P61916 20-151): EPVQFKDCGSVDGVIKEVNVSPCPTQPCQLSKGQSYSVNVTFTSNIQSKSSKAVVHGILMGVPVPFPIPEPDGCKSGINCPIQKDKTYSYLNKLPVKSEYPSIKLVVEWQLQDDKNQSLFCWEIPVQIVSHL
# [8] = molecular target: SW480 colon carcinoma cells lysate proteins (Homo sapiens, UniProt Q71UM5); conditions: PreyGene RPS27L; SW480 cells
# [9] = molecular target: SW480 colon carcinoma cells lysate proteins (Homo sapiens, UniProt O15372); conditions: PreyGene EIF3H
# [10] = molecular target: T3, SW480 colon carcinoma cells lysate proteins (Homo sapiens, UniProt Q15785); conditions: PreyGene TOMM34
# T3 sequence (Q15785 1-309): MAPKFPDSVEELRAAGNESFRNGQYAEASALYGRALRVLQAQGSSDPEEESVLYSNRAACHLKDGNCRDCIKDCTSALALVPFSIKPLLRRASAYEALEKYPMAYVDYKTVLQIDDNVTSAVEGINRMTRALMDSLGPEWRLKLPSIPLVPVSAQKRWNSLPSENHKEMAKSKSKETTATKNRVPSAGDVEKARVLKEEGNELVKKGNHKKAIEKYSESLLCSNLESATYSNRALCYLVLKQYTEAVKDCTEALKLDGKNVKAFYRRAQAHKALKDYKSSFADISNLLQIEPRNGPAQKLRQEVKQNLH
# [11] = molecular target: T4, SW480 colon carcinoma cells lysate proteins (Homo sapiens, UniProt O00232); conditions: PreyGene PSMD12
# T4 sequence (O00232 1-456): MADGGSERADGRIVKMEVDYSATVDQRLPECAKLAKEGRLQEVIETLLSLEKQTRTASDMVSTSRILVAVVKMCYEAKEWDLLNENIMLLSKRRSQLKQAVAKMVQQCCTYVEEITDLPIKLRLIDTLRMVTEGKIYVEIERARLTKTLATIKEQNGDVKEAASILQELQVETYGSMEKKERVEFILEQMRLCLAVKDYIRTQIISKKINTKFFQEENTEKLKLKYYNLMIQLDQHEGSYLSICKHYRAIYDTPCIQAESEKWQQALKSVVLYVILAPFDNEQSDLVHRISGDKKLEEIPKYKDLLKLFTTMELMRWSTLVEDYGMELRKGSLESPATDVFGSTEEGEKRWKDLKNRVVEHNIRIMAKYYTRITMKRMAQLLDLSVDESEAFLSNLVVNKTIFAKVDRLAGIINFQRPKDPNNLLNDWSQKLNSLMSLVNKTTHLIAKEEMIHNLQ
# [12] = molecular target: SW480 colon carcinoma cells lysate proteins (Homo sapiens, UniProt Q9NZI8); conditions: PreyGene IGF2BP1; SW480 cells
# SW480 colon carcinoma cells lysate proteins (Homo sapiens, UniProt Q9NZI8), sequence (Q9NZI8 whole entry): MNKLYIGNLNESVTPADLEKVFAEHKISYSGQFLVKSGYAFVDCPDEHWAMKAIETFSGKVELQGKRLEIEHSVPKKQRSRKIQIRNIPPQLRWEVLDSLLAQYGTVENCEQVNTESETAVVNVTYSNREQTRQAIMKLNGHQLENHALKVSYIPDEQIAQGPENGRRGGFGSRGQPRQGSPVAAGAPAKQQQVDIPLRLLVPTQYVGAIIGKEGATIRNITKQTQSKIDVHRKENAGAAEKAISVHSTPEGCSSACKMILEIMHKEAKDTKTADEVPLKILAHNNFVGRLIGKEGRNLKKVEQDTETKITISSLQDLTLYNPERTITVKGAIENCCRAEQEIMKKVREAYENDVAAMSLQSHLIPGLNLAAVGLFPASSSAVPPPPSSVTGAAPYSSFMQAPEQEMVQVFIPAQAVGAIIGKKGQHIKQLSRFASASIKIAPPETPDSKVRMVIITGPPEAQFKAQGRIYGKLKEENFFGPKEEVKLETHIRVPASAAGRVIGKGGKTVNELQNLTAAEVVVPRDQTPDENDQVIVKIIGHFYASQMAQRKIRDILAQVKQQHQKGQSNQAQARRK
# SW480 colon carcinoma cells lysate proteins (Homo sapiens, UniProt P26447), sequence (P26447 whole entry): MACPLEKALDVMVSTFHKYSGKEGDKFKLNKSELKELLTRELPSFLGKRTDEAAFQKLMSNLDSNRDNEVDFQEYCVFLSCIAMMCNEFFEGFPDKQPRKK
# SW480 colon carcinoma cells lysate proteins (Homo sapiens, UniProt O15372), sequence (O15372 whole entry): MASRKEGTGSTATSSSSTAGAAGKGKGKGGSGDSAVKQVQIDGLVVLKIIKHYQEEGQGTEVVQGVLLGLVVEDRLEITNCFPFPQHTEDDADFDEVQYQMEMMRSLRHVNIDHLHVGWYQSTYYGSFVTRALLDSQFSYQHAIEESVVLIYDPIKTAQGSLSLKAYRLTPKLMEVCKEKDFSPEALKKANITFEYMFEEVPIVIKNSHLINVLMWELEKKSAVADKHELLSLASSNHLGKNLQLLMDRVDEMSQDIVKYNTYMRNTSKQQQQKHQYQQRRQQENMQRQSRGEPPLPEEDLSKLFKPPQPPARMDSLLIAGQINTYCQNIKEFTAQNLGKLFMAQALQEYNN
# SW480 colon carcinoma cells lysate proteins (Homo sapiens, UniProt Q9NTK5), sequence (Q9NTK5 whole entry): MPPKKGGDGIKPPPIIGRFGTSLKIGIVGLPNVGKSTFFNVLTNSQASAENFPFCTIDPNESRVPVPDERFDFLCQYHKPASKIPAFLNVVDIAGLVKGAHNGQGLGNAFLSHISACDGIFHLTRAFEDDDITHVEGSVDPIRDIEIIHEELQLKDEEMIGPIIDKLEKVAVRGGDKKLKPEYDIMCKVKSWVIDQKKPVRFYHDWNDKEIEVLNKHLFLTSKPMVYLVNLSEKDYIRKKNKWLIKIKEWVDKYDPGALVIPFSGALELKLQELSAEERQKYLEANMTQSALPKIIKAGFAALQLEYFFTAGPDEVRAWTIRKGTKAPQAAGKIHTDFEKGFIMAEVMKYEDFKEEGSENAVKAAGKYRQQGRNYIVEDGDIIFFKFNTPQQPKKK
# SW480 colon carcinoma cells lysate proteins (Homo sapiens, UniProt Q9HB71), sequence (Q9HB71 whole entry): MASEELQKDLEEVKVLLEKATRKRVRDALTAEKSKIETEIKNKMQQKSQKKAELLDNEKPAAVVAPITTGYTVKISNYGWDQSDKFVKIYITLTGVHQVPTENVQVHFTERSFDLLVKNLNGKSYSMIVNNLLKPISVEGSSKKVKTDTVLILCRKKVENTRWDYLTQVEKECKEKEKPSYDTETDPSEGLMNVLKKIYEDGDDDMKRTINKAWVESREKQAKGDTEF
# SW480 colon carcinoma cells lysate proteins (Homo sapiens, UniProt P15559), sequence (P15559 whole entry): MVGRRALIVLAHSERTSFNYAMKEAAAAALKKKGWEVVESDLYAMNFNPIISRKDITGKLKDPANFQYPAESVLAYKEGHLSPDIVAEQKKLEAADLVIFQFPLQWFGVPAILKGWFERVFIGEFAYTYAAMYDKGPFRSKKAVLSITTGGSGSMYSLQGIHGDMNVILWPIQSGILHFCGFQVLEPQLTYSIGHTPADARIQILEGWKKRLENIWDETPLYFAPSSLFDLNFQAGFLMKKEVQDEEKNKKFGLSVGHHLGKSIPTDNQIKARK
# SW480 colon carcinoma cells lysate proteins (Homo sapiens, UniProt Q13561), sequence (Q13561 whole entry): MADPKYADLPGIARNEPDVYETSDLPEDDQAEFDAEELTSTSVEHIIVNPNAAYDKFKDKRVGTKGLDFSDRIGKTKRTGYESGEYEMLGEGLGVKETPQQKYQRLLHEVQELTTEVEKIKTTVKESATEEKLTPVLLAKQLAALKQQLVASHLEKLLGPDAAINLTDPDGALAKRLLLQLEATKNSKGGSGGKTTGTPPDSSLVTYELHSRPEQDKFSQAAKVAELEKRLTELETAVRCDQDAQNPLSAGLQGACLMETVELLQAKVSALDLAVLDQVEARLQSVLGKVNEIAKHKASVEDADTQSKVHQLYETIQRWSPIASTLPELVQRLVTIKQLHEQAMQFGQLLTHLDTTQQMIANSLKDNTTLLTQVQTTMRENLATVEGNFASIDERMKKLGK
compound,measurement,setting,value
C[C@H](Oc1cc(-c2cnn(C3CCNCC3)c2)cnc1N)c1c(Cl)ccc(F)c1Cl [(5)-crizotinib],AvgP,[1],0.3707
same,SC.Exp. 1-1,[1],2
same,SC.Exp. 1-2,[1],2
same,SC.Exp. 2-1,[1],0
same,SC.Exp. 2-2,[1],0
same,Sum (SC.Exp.),[1],4
same,AvgP,[2],0.3104
same,SC.Exp. 1-1,[2],2
same,SC.Exp. 1-2,[2],1
same,SC.Exp. 2-1,[2],0
same,SC.Exp. 2-2,[2],0
same,Sum (SC.Exp.),[2],3
same,AvgP,[3],0.392
same,SC.Exp. 1-1,[3],2
same,SC.Exp. 1-2,[3],2
same,SC.Exp. 2-1,[3],0
same,SC.Exp. 2-2,[3],0
same,Sum (SC.Exp.),[3],4
same,AvgP,[4],0.2964
same,SC.Exp. 1-1,[4],2
same,SC.Exp. 1-2,[4],3
same,SC.Exp. 2-1,[4],0
same,SC.Exp. 2-2,[4],0
same,Sum (SC.Exp.),[4],5
same,AvgP,[5],0
same,SC.Exp. 1-1,[5],1
same,SC.Exp. 1-2,[5],1
same,SC.Exp. 2-1,[5],0
same,SC.Exp. 2-2,[5],0
same,SC.Exp. Sum,[5],2
same,AvgP,[6],0.3894
same,SC.Exp. 1-1,[6],3
same,SC.Exp. 1-2,[6],2
same,SC.Exp. 2-1,[6],0
same,SC.Exp. 2-2,[6],0
same,Sum (SC.Exp.),[6],5
same,AvgP,[7],0.3813
same,SC.Exp. 1-1,[7],2
same,SC.Exp. 1-2,[7],2
same,SC.Exp. 2-1,[7],0
same,SC.Exp. 2-2,[7],0
same,Sum (SC.Exp.),[7],4
same,AvgP,[8],0
same,SC.Exp. 1-1,[8],0
same,SC.Exp. 1-2,[8],1
same,SC.Exp. 2-1,[8],0
same,SC.Exp. 2-2,[8],0
same,SC.Exp. Sum,[8],1
same,AvgP,[9],0.2043
same,SC.Exp. 1-1,[9],3
same,SC.Exp. 1-2,[9],0
same,SC.Exp. 2-1,[9],0
same,SC.Exp. 2-2,[9],0
same,Sum (SC.Exp.),[9],3
same,AvgP,[10],0.1791
same,SC.Exp. 1-1,[10],0
same,SC.Exp. 1-2,[10],2
same,SC.Exp. 2-1,[10],0
same,SC.Exp. 2-2,[10],0
same,Sum (SC.Exp.),[10],2
same,AvgP,[11],0.35
same,SC.Exp. 1-1,[11],2
same,SC.Exp. 1-2,[11],2
same,SC.Exp. 2-1,[11],0
same,SC.Exp. 2-2,[11],0
same,Sum (SC.Exp.),[11],4
same,AvgP,[12],0
same,SC.Exp. 1-1,[12],4
same,SC.Exp. 1-2,[12],8
same,SC.Exp. 2-1,[12],4
same,SC.Exp. 2-2,[12],6
same,SC.Exp. Sum,[12],22
